This note sets out measurements from patent US20240409557A1, “5,6-FUSED AND 6,6-FUSED BICYCLIC ALCOHOLS AND ETHERS AND COMPOSITIONS FOR USE AS 15-PROSTAGLANDIN DEHYDROGENASE MODULATORS” (AMGEN INC., priority 2023, published 2024).

Test [1] deals with T1, 15-PGDH in A549 cells (Homo sapiens, UniProt P15428).
T1 construct: endogenous in cells; host or cells: A549
T1 sequence (P15428 1-266): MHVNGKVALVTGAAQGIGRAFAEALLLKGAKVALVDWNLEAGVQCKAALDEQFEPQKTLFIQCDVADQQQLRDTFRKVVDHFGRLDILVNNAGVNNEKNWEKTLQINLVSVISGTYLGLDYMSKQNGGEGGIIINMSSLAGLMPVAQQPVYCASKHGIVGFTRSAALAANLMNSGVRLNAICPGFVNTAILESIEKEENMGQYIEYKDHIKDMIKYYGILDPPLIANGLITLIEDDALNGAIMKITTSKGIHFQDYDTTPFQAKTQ
Put plainly: A549 cellular 15-PGDH assay (PGE2 accumulation, HTRF). It counts as cell-based. The note with it: interleukin-stimulated, inhibitor 24 hrs, PGE2 by competitive HTRF, read-out: A549 Cell Assay IC50. An excerpt:
This assay was used for the quantification of IL-13 induced Native Prostaglandin E2 (PGE2) produced by A549 cells (epithelial cells from lung carcinoma) in cell culture supernatants. […] PGE2 was detected in a competitive HTRF assay by using anti PGE2 antibody labeled with Europium cryptate, and PGE2 labeled with […]. The PGE2 present in the sample competes with the binding between the two HTRF detection solutions (reagents) and thereby prevents FRET from occurring. The specific signal is inversely proportional to the PGE2 concentration. From this binding data, IC50 values were calculated.
On the technique in general: In TR-FRET formats the signal depends on donor and acceptor labels being close together.

In test [2] the target is T2, human recombinant 15-PGDH (Homo sapiens, UniProt P15428).
T2 sequence (P15428 1-266): T1 sequence (P15428 1-266)
Put plainly: Recombinant 15-PGDH enzymatic inhibition assay (PGDH-Lumi, NADH signal). The format is biochemical. The note with it: recombinant 15-PGDH; 15 min pre-incubation, 60 min reaction with PGE2 and NAD+, NADH signal. As for the experimental part: These assays measured 15-PGDH enzymatic activity by quantifying the amount of NADH produced during a 60-minute reaction initiated by the addition of PGE2 and NAD+. Under the conditions of these experiments, the increase of NADH signal upon oxidation of PGE2 and reduction of NAD+ was linearly proportional to 15-PGDH enzymatic activity. The recombinant human, mouse, rat and dog 15-PGDH enzymatic assays were performed in a 25 μL volume of reaction buffer containing 50 mM Tris, pH 7.5, 0.01% Tween-20 and […] DTT in a 384-well microtiter plate. In concentration-response experiments with tested compounds, 22 concentrations from 2-fold serial dilutions in DMSO were pre-incubated with 15-PGDH for 15 minutes at room temperature. Then, PGE2 and β-NAD+ were added to initiate the 15-PGDH reaction. After 60 minutes at room temperature, the reaction was quenched and NADH signal was measured using a microtiter plate reader.
The following data (Table 27-1) provides the IC50 in μM of each compound for inhibiting enzymatic activity of the recombinant 15-PGDH in the assay described above.

As usually defined, the IC50 is the concentration at which inhibition is half-maximal.

Take `OC1(c2cc3ccc(-c4cnc5[nH]cnc5c4)nc3s2)CC(F)(F)C1` [Compound C41, 3,3-difluoro-1-(6-(3H-imidazo[4,5-b]pyridin-6-yl)thieno[2,3-b]pyridin-2-yl)cyclobutanol]: the values for the IC50 in test [1] and in test [2] were 2.15 nM and 1.24 nM, respectively.

In the case of `CCC(O)c1cc2c(C3CC3)cc(-c3cnc4nn(C)cc4c3)nc2s1` (centres unmarked) [Compound B13, 1-(4-cyclopropyl-6-(2-methyl-2H-pyrazolo[3,4-b]pyridin-5-yl)thieno[2,3-b]pyridin-2-yl)-1-propanol], the values for the IC50 in test [1] and in test [2] were 4.19 nM and 0.901 nM, respectively.

As for `Cc1nc2ncc(-c3ccc4cc(C5(O)CC(F)(F)C5)sc4n3)cc2o1` [Compound C34, 3,3-difluoro-1-(6-(2-methyl[1,3]oxazolo[4,5-b]pyridin-6-yl)thieno[2,3-b]pyridin-2-yl)cyclobutanol], the IC50 in test [1] came out at 1.35 nM; in test [2] it was 0.78 nM.

As for `COCC[C@H](O)c1cc2ccc(-c3cnc4nn(C)cc4c3)nc2s1` (single isomer, unassigned) [Compound B29S], the IC50 in test [1] was determined as 3.08 nM; in test [2] it was 10.5 nM.

For the molecule `Cn1nnc2cc(-c3ccc4ccc([C@@H](O)C5CCOCC5)cc4n3)cnc21` (single isomer, unassigned) [Compound D3S], the values for the IC50 in test [1] and in test [2] were above 750 nM and 11500 nM, respectively.

With `Cn1cc2cc(-c3ccc4cc([C@@H](O)C5CC(F)(F)C5)sc4n3)cnc2n1` (single isomer, unassigned) [Compound B30S], the figures for the IC50 in test [1] and in test [2] were 0.406 nM and 0.35 nM, respectively.

Consider `Cn1nnc2cc(-c3ccc4cc([C@]5(O)C[C@](C)(C#N)C5)sc4n3)cnc21` (single isomer, unassigned) [Compound C104T, trans-3-hydroxy-1-methyl-3-(6-(3-methyl-3H-[1,2,3]triazolo[4,5-b]pyridin-6-yl)thieno[2,3-b]pyridin-2-yl)cyclobutanecarbonitrile], for which the values for the IC50 in test [1] and in test [2] were 1.44 nM and 0.515 nM, respectively.

Regarding `Cn1nnc2cc(-c3ccc4cc([C@]5(O)C[C@@H](OC(F)(F)F)C5)sc4n3)cnc21` [Compound C101C, cis-1-(6-(3-methyl-3H-[1,2,3]triazolo[4,5-b]pyridin-6-yl)thieno[2,3-b]pyridin-2-yl)-3-(trifluoromethoxy)cyclobutanol], the 50% inhibitory concentration (IC50) in test [1] stood at 0.847 nM; in test [2], 0.496 nM.

In the case of `Cn1cc2cc(-c3ccc4cc([C@]5(O)C[C@@H](OC(F)(F)F)C5)sc4n3)cnc2n1` [Compound C67C, cis-1-(6-(2-methyl-2H-pyrazolo[3,4-b]pyridin-5-yl)thieno[2,3-b]pyridin-2-yl)-3-(trifluoromethoxy)cyclobutanol], the IC50 in test [1] is 0.0187 nM; in test [2], 0.534 nM.

In the case of `Cn1cc2cc(-c3ccc4ccc([C@@H](O)C5CCOCC5)cc4n3)cnc2n1` (single isomer, unassigned) [Compound D4S], the IC50 in test [1] amounted to 305 nM; in test [2], 426 nM.

On to `Cn1cc2cc(-c3ccc4cc([C@]5(O)C[C@@]6(CC6(F)F)C5)sc4n3)cnc2n1` (single isomer, unassigned) [Compound C88T, trans-1,1-difluoro-5-(6-(2-methyl-2H-pyrazolo[3,4-b]pyridin-5-yl)thieno[2,3-b]pyridin-2-yl)spiro[2.3]hexan-5-ol], for which the IC50 was determined as 0.589 nM in test [1] and 0.347 nM in test [2].

Consider `Cn1cc2cc(-c3ccc4cc([C@]5(O)C[C@](C)(C#N)C5)sc4n3)cnc2n1` [Compound C63T, trans-3-hydroxy-1-methyl-3-(6-(2-methyl-2H-pyrazolo[3,4-b]pyridin-5-yl)thieno[2,3-b]pyridin-2-yl)cyclobutanecarbonitrile], for which the IC50 in test [1] was determined as 0.0863 nM; in test [2], 0.376 nM.

`O[C@@H](c1cc2ccc(-c3cnc4[nH]nnc4c3)nc2s1)C1CCOCC1` (single isomer, unassigned) [Compound B44R]: the IC50 in test [1] turned out to be 2.61 nM; in test [2], 0.464 nM.

`CCCC(O)c1cc2ccc(-c3cnc4nn(C)cc4c3)nc2s1` (centres unmarked) [Compound B27, 1-(6-(2-methyl-2H-pyrazolo[3,4-b]pyridin-5-yl)thieno[2,3-b]pyridin-2-yl)-1-butanol]: the IC50 in test [1] came out at 0.597 nM; in test [2] it was 0.402 nM.

In the case of `Cc1nc2cc(-c3ccc4cc([C@]5(O)C[C@@H](C(F)F)C5)sc4n3)cnc2[nH]1` [Compound C93C, cis-3-(difluoromethyl)-1-(6-(2-methyl-3H-imidazo[4,5-b]pyridin-6-yl)thieno[2,3-b]pyridin-2-yl)cyclobutanol], the figures for the IC50 in test [1] and in test [2] were 1.96 nM and 0.587 nM, respectively.

As for `Cn1cc2cc(-c3ncc4nc([C@]5(O)C[C@@H](C(F)F)C5)sc4n3)cnc2n1` [Compound C109C], the IC50 turned out to be 8.48 nM in test [1] and 3.35 nM in test [2].

`CC(C)n1cc2cc(-c3ccc4cc([C@@H](O)C5CC(F)(F)C5)sc4n3)cnc2n1` (single isomer, unassigned) [Compound B64S]: the IC50 was 0.483 nM in test [1] and 0.597 nM in test [2].

Take `Cn1cc2cc(-c3cnc4sc([C@H](O)C5CC(F)(F)C5)cc4c3)cnc2n1` (single isomer, unassigned) [Compound B77R]: the values for the IC50 in test [1] and in test [2] were 1.29 nM and 4.93 nM, respectively.

Regarding `Cn1nnc2cc(-c3ccc4cc([C@]5(O)C[C@@H](C(F)F)C5)sc4n3)cnc21` [Compound C76C, cis-3-(difluoromethyl)-1-(6-(3-methyl-3H-[1,2,3]triazolo[4,5-b]pyridin-6-yl)thieno[2,3-b]pyridin-2-yl)cyclobutanol], the IC50 was found to be 1.03 nM in test [1] and 0.832 nM in test [2].

As for `Cn1cc2cc(-c3ccc4cc(C(O)C5CCC(F)(F)CC5)sc4n3)cnc2n1` (centres unmarked) [Compound B31, (4,4-difluorocyclohexyl)(6-(2-methyl-2H-pyrazolo[3,4-b]pyridin-5-yl)thieno[2,3-b]pyridin-2-yl)methanol], the IC50 came out at 0.553 nM in test [1] and 0.42 nM in test [2].

Regarding `Cc1c2ccc(-c3cnc4nn(C)cc4c3)nc2sc1[C@]1(O)C[C@@H](C(F)F)C1` [Compound C83C, cis-3-(difluoromethyl)-1-(3-methyl-6-(2-methyl-2H-pyrazolo[3,4-b]pyridin-5-yl)thieno[2,3-b]pyridin-2-yl)cyclobutanol], the figures for the IC50 in test [1] and in test [2] were 12.3 nM and 5.33 nM, respectively.

As to `CO[C@]1(C)C[C@](O)(c2cc3ccc(-c4cnc5nn(C)cc5c4)nc3s2)C1` (single isomer, unassigned) [Compound C59T, trans-3-methoxy-3-methyl-1-(6-(2-methyl-2H-pyrazolo[3,4-b]pyridin-5-yl)thieno[2,3-b]pyridin-2-yl)cyclobutanol], the IC50 came out at 0.16 nM in test [1] and 0.727 nM in test [2].

Consider `Cn1cc2cc(-c3ccc4cc([C@H](O)C5(C)CC(F)(F)C5)sc4n3)cnc2n1` (single isomer, unassigned) [Compound B86R], for which the IC50 in test [1] turned out to be 0.499 nM; in test [2], 0.504 nM.

Consider `Cn1cc2cc(-c3ncc4cc([C@]5(O)C[C@]6(CC6(F)F)C5)sc4n3)cnc2n1` (single isomer, unassigned) [Compound C114C, cis-1,1-difluoro-5-(2-(2-methyl-2H-pyrazolo[3,4-b]pyridin-5-yl)thieno[2,3-d]pyrimidin-6-yl)spiro[2.3]hexan-5-ol], for which the IC50 stood at 0.821 nM in test [1] and 0.323 nM in test [2].

As for `Cn1cc2cc(-c3ccc4cc(C5(O)COC5)sc4n3)cnc2n1` [Compound C18, 3-(6-(2-methyl-2H-pyrazolo[3,4-b]pyridin-5-yl)thieno[2,3-b]pyridin-2-yl)-3-oxetanol], the IC50 in test [2] was determined as 12.9 nM.

Take `Cn1cc2cc(-c3ccc4cc(C(O)(C5CC5)C(F)(F)F)sc4n3)cnc2n1` (centres unmarked) [Compound C17, 1-cyclopropyl-2,2,2-trifluoro-1-(6-(2-methyl-2H-pyrazolo[3,4-b]pyridin-5-yl)thieno[2,3-b]pyridin-2-yl)ethanol]: the IC50 in test [2] amounted to 1260 nM.

As to `Cn1ncc2cc(-c3ccc4cc(C(O)C5CCOCC5)sc4n3)ccc21` (centres unmarked) [Compound B34, (6-(1-methyl-1H-indazol-5-yl)thieno[2,3-b]pyridin-2-yl)(tetrahydro-2H-pyran-4-yl)methanol], the IC50 in test [2] turned out to be 20.7 nM.

On to `Cn1cc2cc(-c3ccc4cc([C@@H](CO)C5CC(F)(F)C5)sc4n3)cnc2n1` (single isomer, unassigned) [Compound B80R], for which the IC50 in test [2] was 46.7 nM.

`C[C@@H]1CC[C@@]1(O)c1cc2ccc(-c3cnc4nn(C)cc4c3)nc2s1` (single isomer, unassigned) [Compound C64SR]: the IC50 in test [2] came out at 466 nM.
